Data on 1 compound can be found in patent US20100204258A1, “METHODS AND COMPOSITIONS FOR MODULATING INSULIN SECRETION AND GLUCOSE METABOLISM” (The Trustees of Columbia University in the City of New York, priority 2007, published 2010).

What all share (type): in vivo, rat
For assay [1], the system named is Lewis rats. The assay can be described thus: Intraperitoneal glucose tolerance test (IPGTT) in normal Lewis rats after a single i.v. dose. Conditions: for blood glucose excursion during IPGTT: Lewis rats 9-11 week old, 1.6 μg/gm body weight i.v. 60 min before IPGTT, vs vehicle. How it is done:
Experimental animals. All animal studies were reviewed and approved by the Institutional Animal Care and Use Committee (IACUC) at Columbia University's Medical School. All experiments were performed in accordance with the IACUC approved procedures. Normal male Lewis rats (100-400 grams) were obtained from Taconic (Taconic Inc., Germantown, N.Y.) and were housed under conditions of controlled humidity (55±5%), temperature (23±1° C.), and lighting (light on: 06.00-18.00 hours) with free access to standard laboratory rat chow and water. Rats were handled daily to minimize nonspecific stress for more than 7 days before the experiments began. In most experiments, it was necessary to measure blood glucose in fasting animals. For these groups, food was removed at the beginning of the light cycle, 6 hours before glucose levels were measured. Diabetes mellitus was induced by intraperitoneal injection of streptozotocin (Sigma Chemical Co., St. Louis, Mo.) (25 to 50 mg/kg) to animals (100 to 150 grams) that had been fasted 4 hours to enhance the effectiveness of STZ treatment.
The STZ solution was prepared fresh by dissolving it in 0.1 M citrate buffer (pH 5.5) and terminally sterile filtered. Control Lewis age and weight matched rats received a 0.5 ml/kg citrate vehicle alone via intraperitoneal injection. Sixty minutes prior to intraperitoneal glucose tolerance testing (IPGTT), anesthesia of male Lewis rats was induced with isoflurane (3-4% in oxygen) and maintained with 1-2% isoflurane in oxygen. Anaesthetized rats were administered TBZ at the indicated dose by intravenous (i.v.) injection using the penile vein. TBZ was dissolved in neat sterile dimethylsulfoxide (DMSO) and diluted (always more than 10 fold) in sterile saline. Rats received injections of vehicle alone (10% DMSO in saline) or reserpine (in saline). Animals recovered fully before receiving IPGTT.
(§1) Blood glucose, insulin, glucagon and intraperitoneal glucose tolerance tests measurements. Blood samples were collected from a superficial blood vessel in the tails of the rats following 6 hours of fasting between 12:00 noon and 2:00 p.m. The fasting blood glucose (BG) levels of the rats were measured using an Accu-Check blood glucose monitoring system (Roche Diagnostics, Sommerville, N.J.). Intraperitoneal glucose tolerance tests (IPGTT) were performed in 6 hour fasting un-anaesthetized animals. Briefly, after baseline BG measurements, animals received an intraperitoneal (i.p.) injection of 1 gram glucose/kilogram body weight. To minimize stress during the procedure, rats were handled by the same operator during acclimatization and later during weighing and IPGTT. Blood samples (approximately 30 μl) were collected at baseline and then again 15, 30, 60, 90, and 120 minutes following i.p. glucose administration. BG concentrations were measured immediately on these samples and the remainder processed.
(§2) Plasma was immediately separated by centrifugation at 3000×g for 15 minutes and then stored at −20° C. until analysis. Insulin and glucagon concentration measurements in rat plasma were performed by ELISA as per the manufacturer's instructions using kits from Linco Research Inc. (St. Charles, Mo.) and Alpco Diagnostics (Salem, N.H.), respectively. To validate the test, saline injections were performed by the same method. […] The area under the IPGTT glucose concentration×time curve (AUCIPGTT) was calculated by the trapezoidal rule. The area under the insulin or glucagon concentration×time curve (AUC INS or AUC GCG) was calculated in a similar manner.

The test system of assay [2] is plasma insulin and glucagon. The assay can be described thus: Plasma insulin and glucagon (ELISA) during IPGTT. The protocol:
as §1, §2
On the technique in general: In an ELISA, binding on a coated surface is turned into a signal by an enzyme label.

The subject of assay [3] is Lewis rats. Description: IPGTT after 2 mg/kg i.v. of VMAT2 ligands (FIG. 10). The following applies: 2 mg/kg body weight i.v.; for blood glucose excursion during IPGTT: vs vehicle (DMSO). The protocol: Experimental animals. All animal studies were conducted as described in Example 1.
Anaesthetized rats were administered TBZ, THB, butamol, reserpine, emetine, or Compound 6 at a dose of approximately 2-3 mg/kg body weight by intravenous (i.v.) injection using the penile vein. TBZ, THB, butamol, reserpine, emetine, and Compound 6 were each separately dissolved in neat sterile dimethylsulfoxide (DMSO) and diluted (always more than 10 fold) in sterile saline. Rats received injections of vehicle alone (10% DMSO in saline) or reserpine (in saline). Animals recovered fully before receiving IPGTT.
as §1, with “30, 45,” for “30,”, “glucose.” for “glucose administration.”

In assay [4] the test system is Lewis rats. The assay can be described thus: IPGTT with TBZ, emetine and Compound 6 (FIG. 12). The following applies: single dose 2-3 mg/kg body weight. The protocol: Experimental animals. All animal studies were conducted as described in Example 1. […] Rats received injections of vehicle alone (10% DMSO in saline) or reserpine (in saline). Animals recovered fully before receiving IPGTT. Blood glucose, insulin, glucagon and intraperitoneal glucose tolerance tests measurements. […] The fasting blood glucose (BG) levels of the rats were measured using an Accu-Check blood glucose monitoring system (Roche Diagnostics, Sommerville, N.J.). Intraperitoneal glucose tolerance tests (IPGTT) were performed in 6 hour fasting un-anaesthetized animals. Briefly, after baseline BG measurements, animals received an intraperitoneal (i.p.) injection of 1 gram glucose/kilogram body weight. To minimize stress during the procedure, rats were handled by the same operator during acclimatization and later during weighing and IPGTT. Blood samples (approximately 30 μl) were collected at baseline and then again 15, 30, 45, 60, 90, and 120 minutes following i.p. glucose. BG concentrations were measured immediately on these samples and the remainder processed.

“Also recorded” adds a separate entry of the source.

Turning to `COc1cc2c(cc1OC)C1CC(=O)C(CC(C)C)CN1CC2` (stereo not drawn) [TBZ, tetrabenazine], in assay [1] (1.6 μg/gbm (gram body weight) i.v.), the “reduction of the glucose excursion (areas under the curve during IPGTT)” value is given as 40-50%. For the same compound, the “AUC IPGTT, controls vs TBZ treated animals” value in assay [1] (1.6 μg/gm body weight, n=4 experiments, p<0.05) was “significantly higher”. Also, the “rise in glucose concentration around 15 minutes after injection” value in assay [1] (IPGTT following TBZ administration) is given as “blunted”. The “blood glucose excursion during IPGTT” value in assay [1] was “reduces the blood glucose excursion”; in assay [1] (listed as tetrabenazine), “significant change in the size and shape of the glucose disposition curve”; in assay [3], “reduce the blood glucose excursion”; in assay [3] (listed as Tetrabenazine), “reduced the blood glucose excursion”; in assay [4], “consistently reduced the blood glucose excursion”. The “baseline fasting glucose concentration” value in assay [1] (following TBZ administration, before glucose challenge, data not shown) is “no reproducible differences”. Moreover, the “dose response of AUC IPGTT (normalized to baseline)” value in assay [1] (varying doses of TBZ before IPGTT) is on record as “reduces the blood glucose excursion in a dose dependent manner; also recorded: complex dose response effect”. Also, the “plasma insulin levels during IPGTT” value in assay [2] (TBZ 1.6 μg/gm and glucose challenge, vs vehicle treated controls) is “alters; also recorded: greater”. Moreover, in assay [2] (four out of five experiments), the “AUC INS with treatment relative to AUC INS of control animals” value is given as “greater than two fold”. For the same compound, the “plasma glucagon levels during IPGTT” value in assay [2] (i.v. TBZ 1.6 μg/gm and glucose challenge, relative to controls) is “alters; also recorded: generally lower”. In assay [2] (prior to glucose challenge, not statistically significant), the “baseline plasma concentrations of glucagon” value is recorded as “sometimes lower than controls”. For the same compound, the “AUC GCG, less than that of control animals” value in assay [2] (three of five experiments) was 75%-85%. For the same compound, the “blood glucose levels during IPGTT” value in assay [3] (around sixty minutes following glucose challenge) is reported as “returned to control or near normal levels”. In assay [3] (following glucose challenge), the “area under the curve in the IPGTT” value is recorded as “smaller area under the curve”. Besides, the “area under the curve from IPGTT” value in assay [4] (separate experiments) is on record as “depress the area under the curve; also recorded: consistently suppressed the area under the curve”.
